{"source": "patent US20120270237A9", "about": "“METHODS FOR THE IDENTIFICATION OF KINASE INTERACTING MOLECULES AND FOR THE PURIFICATION OF KINASE PROTEINS” (Cellzone AG, priority 2009, published 2012)", "key": {"[1]": {"target": "T1, kinases from mixed HeLa placenta lysates (Homo sapiens, UniProt O95382)", "T1 construct": "capturing and identification of kinases from mixed HeLa placenta lysates; endogenous in cells; host or cells: mixed lysate of HeLa cells and placenta tissue", "assay": "Kinobeads competition binding with immobilized CZC25342, mixed HeLa placenta lysates (Example 5, Table 7)", "details": "kinase MAP3K6; 10 μM free compound; HeLa Placenta lysate mix", "procedure,_shortened": "(§1)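 Mixed HeLa/placenta lysate was preincubated with 10 μM free CZC25342 or DMSO, followed by capture on beads bearing immobilized compound. Bound proteins were eluted, separated by SDS-PAGE, trypsin-digested, iTRAQ-labelled and quantified by LC-MS/MS. Percent competition was taken against the DMSO control.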"}, "[2]": {"target": "T2, kinases from mixed HeLa placenta lysates (Homo sapiens, UniProt O96013)", "T2 construct": "capturing and identification of kinases from mixed HeLa placenta lysates; endogenous in cells; host or cells: mixed lysate of HeLa cells and placenta tissue", "assay": "Kinobeads competition binding with immobilized CZC25342, mixed HeLa placenta lysates (Example 5, Table 7)", "details": "kinase PAK4; 10 μM free compound; HeLa Placenta lysate mix", "procedure,_shortened": "as §1"}, "[3]": {"target": "T3, kinases from mixed HeLa placenta lysates (Homo sapiens, UniProt P12931)", "T3 construct": "capturing and identification of kinases from mixed HeLa placenta lysates; endogenous in cells; host or cells: mixed lysate of HeLa cells and placenta tissue", "assay": "Kinobeads competition binding with immobilized CZC25342, mixed HeLa placenta lysates (Example 5, Table 7)", "details": "kinase SRC; 10 μM free compound; HeLa Placenta lysate mix", "procedure,_shortened": "as §1"}, "[4]": {"target": "T4, kinases from mixed HeLa placenta lysates (Homo sapiens, UniProt P19784)", "T4 construct": "capturing and identification of kinases from mixed HeLa placenta lysates; endogenous in cells; host or cells: mixed lysate of HeLa cells and placenta tissue", "assay": "Kinobeads competition binding with immobilized CZC25342, mixed HeLa placenta lysates (Example 5, Table 7)", "details": "kinase CK2a2; 10 μM free compound; HeLa Placenta lysate mix", "procedure,_shortened": "as §1"}, "[5]": {"target": "T5, kinases from mixed HeLa placenta lysates (Homo sapiens, UniProt P27448)", "T5 construct": "capturing and identification of kinases from mixed HeLa placenta lysates; endogenous in cells; host or cells: mixed lysate of HeLa cells and placenta tissue", "assay": "Kinobeads competition binding with immobilized CZC25342, mixed HeLa placenta lysates (Example 5, Table 7)", "details": "kinase MARK3; 10 μM free compound; HeLa Placenta lysate mix", "procedure,_shortened": "as §1"}, "[6]": {"target": "T6, kinases from mixed HeLa placenta lysates (Homo sapiens, UniProt P36894)", "T6 construct": "capturing and identification of kinases from mixed HeLa placenta lysates; endogenous in cells; host or cells: mixed lysate of HeLa cells and placenta tissue", "assay": "Kinobeads competition binding with immobilized CZC25342, mixed HeLa placenta lysates (Example 5, Table 7)", "details": "kinase BMPR1A; 10 μM free compound; HeLa Placenta lysate mix", "procedure,_shortened": "as §1"}, "[7]": {"target": "T7, kinases from mixed HeLa placenta lysates (Homo sapiens, UniProt P48426)", "T7 construct": "capturing and identification of kinases from mixed HeLa placenta lysates; endogenous in cells; host or cells: mixed lysate of HeLa cells and placenta tissue", "assay": "Kinobeads competition binding with immobilized CZC25342, mixed HeLa placenta lysates (Example 5, Table 7)", "details": "kinase PIP5K2A; 10 μM free compound; HeLa Placenta lysate mix", "procedure,_shortened": "as §1"}, "[8]": {"target": "T8, kinases from mixed HeLa placenta lysates (Homo sapiens, UniProt Q00535)", "T8 construct": "capturing and identification of kinases from mixed HeLa placenta lysates; endogenous in cells; host or cells: mixed lysate of HeLa cells and placenta tissue", "assay": "Kinobeads competition binding with immobilized CZC25342, mixed HeLa placenta lysates (Example 5, Table 7)", "details": "kinase CDK5; 10 μM free compound; HeLa Placenta lysate mix", "procedure,_shortened": "as §1"}, "[9]": {"target": "T9, kinases from mixed HeLa placenta lysates (Homo sapiens, UniProt Q04912)", "T9 construct": "capturing and identification of kinases from mixed HeLa placenta lysates; endogenous in cells; host or cells: mixed lysate of HeLa cells and placenta tissue", "assay": "Kinobeads competition binding with immobilized CZC25342, mixed HeLa placenta lysates (Example 5, Table 7)", "details": "kinase RON; 10 μM free compound; HeLa Placenta lysate mix", "procedure,_shortened": "as §1"}, "[10]": {"target": "T10, kinases from mixed HeLa placenta lysates (Homo sapiens, UniProt Q7KZI7)", "T10 construct": "capturing and identification of kinases from mixed HeLa placenta lysates; endogenous in cells; host or cells: mixed lysate of HeLa cells and placenta tissue", "assay": "Kinobeads competition binding with immobilized CZC25342, mixed HeLa placenta lysates (Example 5, Table 7)", "details": "kinase MARK2; 10 μM free compound; HeLa Placenta lysate mix", "procedure,_shortened": "as §1"}, "[11]": {"target": "T11, kinases from mixed HeLa placenta lysates (Homo sapiens, UniProt Q9H2G2)", "T11 construct": "capturing and identification of kinases from mixed HeLa placenta lysates; endogenous in cells; host or cells: mixed lysate of HeLa cells and placenta tissue", "assay": "Kinobeads competition binding with immobilized CZC25342, mixed HeLa placenta lysates (Example 5, Table 7)", "details": "kinase SLK; 10 μM free compound; HeLa Placenta lysate mix", "procedure,_shortened": "as §1"}, "TBK1": {"target": "T12, TBK1 (Homo sapiens, UniProt Q9UHD2)", "T12 sequence (Q9UHD2 1-729)": "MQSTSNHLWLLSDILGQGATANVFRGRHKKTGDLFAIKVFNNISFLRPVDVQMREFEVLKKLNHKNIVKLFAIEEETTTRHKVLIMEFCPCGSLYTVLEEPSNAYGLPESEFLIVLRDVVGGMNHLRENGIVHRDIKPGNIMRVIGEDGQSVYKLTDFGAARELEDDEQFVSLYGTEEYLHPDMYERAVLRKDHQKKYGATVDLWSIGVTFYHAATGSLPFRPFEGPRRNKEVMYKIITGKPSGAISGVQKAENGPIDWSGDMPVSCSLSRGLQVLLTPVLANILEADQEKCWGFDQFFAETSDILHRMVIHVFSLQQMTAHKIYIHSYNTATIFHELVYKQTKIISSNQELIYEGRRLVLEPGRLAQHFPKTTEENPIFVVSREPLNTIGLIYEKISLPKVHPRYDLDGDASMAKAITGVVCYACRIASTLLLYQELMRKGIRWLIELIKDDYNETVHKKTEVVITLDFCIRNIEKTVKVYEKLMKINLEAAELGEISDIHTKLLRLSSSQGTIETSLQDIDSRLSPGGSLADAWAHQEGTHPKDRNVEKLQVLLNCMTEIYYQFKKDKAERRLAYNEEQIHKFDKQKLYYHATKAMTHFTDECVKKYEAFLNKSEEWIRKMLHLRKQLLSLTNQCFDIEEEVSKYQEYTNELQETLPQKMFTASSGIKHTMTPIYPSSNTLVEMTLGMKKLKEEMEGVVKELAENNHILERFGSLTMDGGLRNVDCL", "assay": "Kinobeads competition binding, L-363 cell lysate", "set-up": "capturing and identification of kinases from L-363 cell lysate; endogenous in cells; host or cells: L-363 (treated with MG132 before harvest)", "details": "10 μM free compound, L-363 lysate", "protocol": "To one aliquot of cell lysate 10 μM of the free compound (FIG. 3, CZC31326) was added and allowed to bind to proteins in the lysate. Then the affinity matrix with the immobilized compound was added to capture proteins that were not interacting with the previously added free compound. Beads were separated from the lysate and bead bound proteins were eluted in SDS sample buffer and subsequently separated by SDS-Polyacrylamide gel electrophoresis (FIG. 8). Suitable gel bands were cut out and subjected to in-gel proteolytic digestion with trypsin. The second lysate aliquot was processed identically, however no free compound was added (DMSO solvent control). Peptides originating from samples 1 and 2 were labeled with iTRAQ reagents (iTRAQ 114 and iTRAQ 117) and the combined samples were analyzed with a nano-flow liquid chromatography system coupled online to a tandem mass spectrometer (LC-MS/MS) experiment followed by iTRAQ reporter ion quantification in the MS/MS spectra as described in Example 2.\nFor this experiment the human plasma cell leukaemia line L-363 was used (German Collection of Microorganisms and Cell Cultures, DSMZ number ACC49, Braunschweig, Germany). Cells were treated for three hours with 20 μM of the proteasome inhibitor MG132 (Z-Leu-Leu-Leu-al, Sigma C2211) prior to cell harvesting."}}}
{"compound": "CS(=O)(=O)Nc1ccccc1Nc1nc(Nc2cccc(OCCN)c2)ncc1F", "note": "[CZC25342, N-(2-(2-(3-(2-aminoethoxy)phenylamino)-5-fluoropyrimidin-4-ylamino)phenyl)methanesulfonamide]", "values": [{"measurement": "Competition % MAP3K6", "setting": "[1]", "value": 91.6, "unit": "%"}, {"measurement": "Competition % PAK4", "setting": "[2]", "value": 94.8, "unit": "%"}, {"measurement": "Competition % SRC", "setting": "[3]", "value": 89.5, "unit": "%"}, {"measurement": "Competition % CK2a2", "setting": "[4]", "value": 95.4, "unit": "%"}, {"measurement": "Competition % MARK3", "setting": "[5]", "value": 96.2, "unit": "%"}, {"measurement": "Competition % BMPR1A", "setting": "[6]", "value": 84.1, "unit": "%"}, {"measurement": "Competition % PIP5K2A", "setting": "[7]", "value": 98.7, "unit": "%"}, {"measurement": "Competition % CDK5", "setting": "[8]", "value": 92.6, "unit": "%"}, {"measurement": "Competition % RON", "setting": "[9]", "value": 96, "unit": "%"}, {"measurement": "Competition % MARK2", "setting": "[10]", "value": 93.4, "unit": "%"}, {"measurement": "Competition % SLK", "setting": "[11]", "value": 95.2, "unit": "%"}]}
{"compound": "CS(=O)(=O)Nc1ccccc1Nc1nc(Nc2cccc(OCCN)c2)ncc1Cl", "note": "[CZC31326, N-(2-(2-(3-(2-aminoethoxy)phenylamino)-5-chloropyrimidin-4-ylamino)phenyl)methanesulfonamide]", "values": [{"measurement": "inhibition at 10 µM", "setting": "TBK1", "value": 95.8, "unit": "%"}]}
